Laboratory results: US20120009152A1, “NITRIC OXIDE DONORS FOR TREATMENT OF DISEASE AND INJURY” (priority 2002, published 2012)

Key:
[1] = system: brain-derived endothelial cells; test: Endothelial tube formation, total tube length; type: cell-based; settings: vs control medium DMEM 1.4 (0.1); p<0.01
Source text: The enhance induction of angiogenesis is also evident from in vitro studies of tubule formation in brain derived endothelial cells. […] The endothelial cells formed a network of capillary-like structures with numerous intercellular contacts.

[2] = system: TuJ1-immunoreactive cells in the subventricular zone and striatum; test: TuJ1 immunostaining of immature neurons after embolic MCA occlusion; type: in vivo, rat
Experimental: Male Wistar rats weighing 320 to 380 g were used in the present study. The middle cerebral artery (MCA) was occluded by placement of an embolus at the origin of the MCA. […] Ischemic rats (n=9) were treated with the same volume of tap water as a control group. Functional tests were performed and body weight was measured before ischemia and at 4, 7, 14, 21, and 28 days after onset of MCA occlusion. All rats were killed 28 days after MCA occlusion. […] These rats were killed 1 hour after the last treatment for measurements of brain levels of cGMP. […] Reverse transcription (RT)-polymerase chain reaction (PCR) was performed to detect PDE5 in brain tissue. […] Reaction product was detected with the use of 3′3′-diaminobenzidine-tetrahydrochloride (DAB; Sigma), For ′III-tubulin (TuJ1) immunostaining, which identifies immature neurons, 12 coronal sections were incubated with the antibody against TuJ1 (1:1000) at 4° C. overnight and were then incubated with a biotinylated horse anti-mouse immunoglobulin antibody at room temperature for 30 minutes. […] BrdU-immunoreactive nuclei were counted on a computer monitor to improve visualization and in 1 focal plane to avoid oversampling. All BrdU-immunoreactive-positive nuclei were counted in both the ipsilateral and contralateral walls of the lateral ventricle of the subventricular zone and in the dentate gyrus. […]

[3] = system: BrdU-immunoreactive cells in the subventricular zone and dentate gyrus; test: BrdU cell proliferation in subventricular zone and dentate gyrus after embolic MCA occlusion; type: in vivo, rat; settings: 28 days
Experimental: Male Wistar rats weighing 320 to 380 g were used in the present study. The middle cerebral artery (MCA) was occluded by placement of an embolus at the origin of the MCA. […] Ischemic rats (n=9) were treated with the same volume of tap water as a control group. Functional tests were performed and body weight was measured before ischemia and at 4, 7, 14, 21, and 28 days after onset of MCA occlusion. All rats were killed 28 days after MCA occlusion. […] These rats were killed 1 hour after the last treatment for measurements of brain levels of cGMP. […] Reverse transcription (RT)-polymerase chain reaction (PCR) was performed to detect PDE5 in brain tissue. Bromodeoxyuridine (BrdU) was used to measure cell proliferation. Animals received daily intraperitoneal injections of BrdU (50 mg/kg; Sigma) on the day of stroke and subsequently for 14 consecutive days. Cell proliferation in the subventricular zone and dentate gyrus was measured in rats killed at 28 days (in experimental protocol 1, all 4 groups) after ischemia. […] Sections were incubated with a primary antibody to BrdU (1:100) at room temperature for 1 hour and then incubated with biotinylated secondary antibody (1:200, Vector) for 1 hour. Reaction product was detected with the use of 3′3′-diaminobenzidine-tetrahydrochloride (DAB; Sigma), For ′III-tubulin (TuJ1) immunostaining, which identifies immature neurons, 12 coronal sections were incubated with the antibody against TuJ1 (1:1000) at 4° C. overnight and were then incubated with a biotinylated horse anti-mouse immunoglobulin antibody at room temperature for 30 minutes. Double immunofluorescent staining for BrdU and TuJ1 as performed to determine whether BrdU-immunoreactive cells express neuronal phenotype on the coronal sections. Measurements of BrdU-immunoreactive cells were performed on paraffin-embedded 6-μm-thick sections. 11 BrdU-immunostained sections were digitized with the use of a 40 objective (Olympus BX40) via the MCID computer imaging analysis system (Imaging Research). BrdU-immunoreactive nuclei were counted on a computer monitor to improve visualization and in 1 focal plane to avoid oversampling. All BrdU-immunoreactive-positive nuclei were counted in both the ipsilateral and contralateral walls of the lateral ventricle of the subventricular zone and in the dentate gyrus. […] For the dentate gyrus, every 50th coronal section was selected from each rat for a total of 8 sections between anteroposterior 5.86 mm and anteroposterior 2.96 mm of the granule cell layer. BrdU-immunoreactive nuclei in the subventricular zone and in the dentate gyrus are presented as the number of the cells per square millimeter (mean SE). […] Numbers of TuJ1-immunoreactive cells were counted in the subventricular one and striatum, and data are presented as the number of TuJ1-immunoreactive cells per section (mean SE).

[4] = Sildenafil 2 mg/kg from 2 h after MCA occlusion
[5] = Sildenafil 2 mg/kg from 24 h after MCA occlusion
[6] = Sildenafil 5 mg/kg from 2 h after MCA occlusion

Row | SMILES | Total tube length [1] [mm/mm^2] | numbers of TuJ1-immunoreactive cells in the ipsilateral and contralateral subventricular zones ([2]; sildenafil 2 or 5 mg/kg, 28 days after ischemia, vs control rats) | number of TuJ1 cells in the ipsilateral striatum ([2]; sildenafil, vs contralateral hemisphere and ipsilateral striatum of control rats) | Density of newborn cells, Dentate Gyrus Contralateral [3, 4] [cells per mm^2] | Density of newborn cells, Dentate Gyrus Ipsilateral [3, 4] [cells per mm^2] | Density of newborn cells, Subventricular Zone Contralateral [3, 4] [cells per mm^2] | Density of newborn cells, Dentate Gyrus Contralateral [3, 5] [cells per mm^2] | Density of newborn cells, Dentate Gyrus Ipsilateral [3, 5] [cells per mm^2] | Density of newborn cells, Subventricular Zone Contralateral [3, 5] [cells per mm^2] | Density of newborn cells, Subventricular Zone Ipsilateral [3, 5] [cells per mm^2] | Density of newborn cells, Subventricular Zone Ipsilateral ([3]; Sildenafil 2 mg/kg oral daily 7 days from 2 h after MCA occlusion) [cells per mm^2] | Density of newborn cells, Dentate Gyrus Contralateral [3, 6] [cells per mm^2] | Density of newborn cells, Dentate Gyrus Ipsilateral [3, 6] [cells per mm^2] | Density of newborn cells, Subventricular Zone Contralateral [3, 6] [cells per mm^2] | Density of newborn cells, Subventricular Zone Ipsilateral [3, 6] [cells per mm^2]
1 | NCCN(CCN)/[N+]([O-])=N/O [DETANONOate, (Z)-1-[N-(2-aminoethyl)-N-(2-ammonioethyl)aminio]diazen-1-ium-1,2-diolate] | 4.6±0.6 | – | – | – | – | – | – | – | – | – | – | – | – | – | –
2 | CCCc1nn(C)c2c(=O)[nH]c(-c3cc(S(=O)(=O)N4CCN(C)CC4)ccc3OCC)nc12 [Sildenafil] | – | significantly (P=0.05) increased numbers of TuJ1-immunoreactive cells | significantly increased the number of TuJ1 cells | 55 ± 2.10 | 55 ± 3.99 | 296 ± 19.74 | 56 ± 4.76 | 57 ± 4.21 | 295 ± 24.54 | 374 ± 16.07 | 383 ± 23.44 | 58 ± 5.38 | 59 ± 5.26 | 312 ± 23.79 | 437 ± 32.97
